Like-named read-outs stand apart in the source and are kept apart here. Where a SMILES comes first, the peptide text is derived from it. Bridges are numbered along the chain shown (N, C = ends). [ ]: non-standard residue; d: D form. The star is where a group is joined. hPhe(3,5-F2-4-CF3) = N[C@@H](CCc1cc(F)c(C(F)(F)F)c(F)c1)C(=O)O; NPrPhe(4-CF3) = CCCN[C@@H](Cc1ccc(C(F)(F)F)cc1)C(=O)O; NMeGly(cPent) = CN[C@H](C(=O)O)C1CCCC1; Ac4c(3,3-F2) = NC1(C(=O)O)CC(F)(F)C1; NMeD = CN[C@@H](CC(=O)O)C(=O)O; NMeL = CN[C@@H](CC(C)C)C(=O)O; Morpholide = C1CN(*)CCO1; Aze = O=C(O)[C@@H]1CCN1; Sar = CNCC(=O)O
Legend:
[1] = biological target: GDP-bound NRAS wild-type protein (Homo sapiens, UniProt P01111); assay: Binding to NRAS by surface plasmon resonance (SPR), KD and KD ratio to KRAS
Summary of the method: (§1)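 Affinity is measured by surface plasmon resonance at 30°C against captured, GDP-loaded RAS carrying a biotinylated Avi tag. Compounds are titrated by single-cycle kinetics, and KD comes from a 1:1 fit.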

[2] = system: human lung cancer strain NCI-H441; assay type: cell-based
Summary of the method: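 Readout: […] after the ATP-based reagent. Compound: serial dilutions in dimethyl sulfoxide.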

[3] = biological target: HRAS wild-type protein (Homo sapiens, UniProt P01112); assay: Binding to HRAS by surface plasmon resonance (SPR), KD and KD ratio to KRAS
Summary of the method: as §1

[4] = ratio of the KD value with respect to GDP-bound NRAS wild-type protein to the KD value with respect to KRAS
[5] = ratio of the KD value with respect to HRAS wild-type protein to the KD value with respect to KRAS
[6] = ratio of KD for GDP-bound NRAS wild-type protein to KD for KRAS
[7] = ratio of KD for HRAS wild-type protein to KD for KRAS
[8] = ratio of KD value for GDP-bound NRAS wild-type protein to KD value for KRAS (SPR)
[9] = ratio of KD value for HRAS wild-type protein to KD value for KRAS (SPR)

HRAS wild-type protein, sequence (P01112 whole entry): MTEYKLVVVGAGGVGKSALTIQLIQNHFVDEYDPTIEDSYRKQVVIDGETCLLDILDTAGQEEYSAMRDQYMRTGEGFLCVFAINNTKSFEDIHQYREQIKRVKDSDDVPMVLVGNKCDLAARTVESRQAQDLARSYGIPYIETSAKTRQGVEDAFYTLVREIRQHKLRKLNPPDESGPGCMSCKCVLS
GDP-bound NRAS wild-type protein, sequence (P01111 whole entry): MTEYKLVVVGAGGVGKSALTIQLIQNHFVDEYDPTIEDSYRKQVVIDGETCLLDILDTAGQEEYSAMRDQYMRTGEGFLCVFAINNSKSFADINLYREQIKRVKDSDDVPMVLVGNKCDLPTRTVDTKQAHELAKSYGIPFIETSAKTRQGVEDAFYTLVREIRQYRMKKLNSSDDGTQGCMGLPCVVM

Row | IC50 [2] | Structure (SMILES) | NRAS /KRAS [1, 6] | HRAS /KRAS [3, 7] | further results
1 | 9.6 nM | CC[C@H](C)[C@@H]1NC(=O)[C@H](C)N(C)C(=O)C[C@@H](C(=O)N2CCOCC2)N(C)C(=O)[C@H](C2CCCC2)N(C)C(=O)C2(CCC2)NC(=O)[C@@H]2CC(F)(F)CN2C(=O)[C@H](CCc2cc(F)c(C(F)(F)F)c(F)c2)NC(=O)CN(C)C(=O)[C@H](Cc2ccc(C(F)(F)F)cc2)N2CCCC[C@@H](C2=O)N(C)C(=O)CN(C)C1=O [PP0582] |  |  | NRAS /KRAS [1, 4]: C (A compound having a KD ratio of 0.1 or more and less than 3 is denoted as C); HRAS /KRAS [3, 5]: B (a compound having 3 or more and less than 10 is denoted as B)
2 | 4700 nM | CCO[C@@H]1C[C@H]2C(=O)NC3(CCC3)C(=O)N(C)[C@@H](C3CCCC3)C(=O)N(C)[C@H](C(=O)N3CCOCC3)CC(=O)N(C)C[C@@H](C)C(=O)N[C@@H]([C@@H](C)CC)C(=O)N(C)CC(=O)N(C)[C@H]3CCCCN(C3=O)[C@@H](Cc3ccc(C(F)(F)F)cc3)C(=O)N(C)CC(=O)N[C@@H](CCc3cc(F)c(C(F)(F)F)c(F)c3)C(=O)N2C1 [PP0721] |  |  | NRAS /KRAS [1, 4]: B (a compound having 3 or more and less than 10 is denoted as B); HRAS /KRAS [3, 5]: B (a compound having 3 or more and less than 10 is denoted as B)
3 | 32.5 nM | CCO[C@@H]1C[C@H]2C(=O)NC3(CCC3)C(=O)N(C)[C@@H](C3CCCC3)C(=O)N(C)[C@H](C3CCC3)CC(=O)N(C)[C@@H](CC3CC3)C(=O)N[C@@H]([C@@H](C)CC)C(=O)N(C)CC(=O)N(C)[C@H]3C/C=C\CCN(C3=O)[C@@H](Cc3ccc(C(F)(F)F)cc3)C(=O)N(C)CC(=O)N[C@@H](CCc3cc(F)c(C(F)(F)F)c(F)c3)C(=O)N2C1 [PP1637] |  |  | NRAS /KRAS [1, 8]: A (a compound having 10 or more and less than 20 is denoted as A); HRAS /KRAS [3, 9]: A (a compound having 10 or more and less than 20 is denoted as A)
4 | 39.2 nM | CCCO[C@@H]1CCN2C(=O)[C@H](CCc3cc(F)c(C(F)(F)F)c(F)c3)NC(=O)CN(C)C(=O)[C@H](Cc3ccc(C(F)(F)F)cc3)N3CCCC[C@@H](C3=O)N(C)C(=O)CN(C)C(=O)[C@H]([C@@H](C)CC)NC(=O)[C@H](CC(C)C)N(C)C(=O)C[C@@H](C(=O)N3CCOCC3)N(C)C(=O)[C@H](C3CCCC3)N(C)C(=O)C3(CCC3)NC(=O)[C@H]12 [PP1080] | B (a compound having 3 or more and less than 10 is denoted as B) | B (a compound having 3 or more and less than 10 is denoted as B) | 
5 | 1.9 nM | CCC[C@H]1C(=O)N[C@@H]([C@@H](C)CC)C(=O)N(C)CC(=O)N(C)[C@H]2C/C=C\CCN(C2=O)[C@@H](Cc2ccc(C(F)(F)F)cc2)C(=O)N(C)CC(=O)N[C@@H](CCc2cc(F)c(C(F)(F)F)c(F)c2)C(=O)N2C[C@H](OCC)C[C@H]2C(=O)N(C)C2(CCC2)C(=O)N(C)[C@@H](C2CCCC2)C(=O)N(C)[C@H](C(=O)N2CCCC2)CC(=O)N1C [PP3120] | AA (a compound having 20 or more is denoted as AA) | A (a compound having 10 or more and less than 20 is denoted as A) | 
6 | 7.7 nM | CCO[C@@H]1C[C@H]2C(=O)NC3(CCC3)C(=O)N(C)[C@@H](C3CCCC3)C(=O)N(C)[C@H](C(=O)N(C)CCOC)CC(=O)N(C)[C@@H](CC(F)F)C(=O)N[C@@H]([C@@H](C)CC)C(=O)N(C)CC(=O)N(C)[C@H]3C/C=C\CCN(C3=O)[C@@H](Cc3ccc(C(F)(F)F)cc3)C(=O)N(C)CC(=O)N[C@@H](CCc3cc(F)c(C(F)(F)F)c(F)c3)C(=O)N2C1 [PP1320] |  |  | NRAS /KRAS ([1]; ratio of KD with respect to GDP-bound NRAS wild-type protein to KD with respect to KRAS): A (a compound having 10 or more and less than 20 is denoted as A); HRAS /KRAS ([3]; ratio of KD with respect to HRAS wild-type protein to KD with respect to KRAS): A (a compound having 10 or more and less than 20 is denoted as A)

More lines, now with the values behind:

Row | Structure (SMILES) | IC50 [2] | NRAS /KRAS [1, 6] | HRAS /KRAS [3, 7] | further results
7 | CCCN1C(=O)[C@@H]2CCN2C(=O)CN(C)C(=O)[C@H]([C@@H](C)CC)NC(=O)[C@H](CC(C)C)N(C)C(=O)C[C@@H](C(=O)N2CCOCC2)N(C)C(=O)[C@H](C2CCCC2)N(C)C(=O)C2(CC(F)(F)C2)NC(=O)[C@@H]2CCCN2C(=O)[C@H](CCc2cc(F)c(C(F)(F)F)c(F)c2)NC(=O)CN(C)C(=O)[C@@H]1Cc1ccc(C(F)(F)F)cc1 [PP0802] ([NMeL]I[Sar][Aze][NPrPhe(4-CF3)][Sar][hPhe(3,5-F2-4-CF3)]P[Ac4c(3,3-F2)][NMeGly(cPent)][NMeD]-Morpholide; lactam N-11) | 6.5 nM | C (A compound having a KD ratio of 0.1 or more and less than 3 is denoted as C) | B (a compound having 3 or more and less than 10 is denoted as B) | 
8 | CCO[C@@H]1C[C@H]2C(=O)NC3(CCC3)C(=O)N(C)[C@@H](C3CCCC3)C(=O)N(C)[C@H](C(=O)N(C)C)CC(=O)N(C)[C@@H](CC)C(=O)N[C@@H]([C@@H](C)CC)C(=O)N(C)CC(=O)N(C)[C@H]3CCCCCN(C3=O)[C@@H](Cc3ccc(F)cc3OC)C(=O)N(C)CC(=O)N[C@@H](CCc3cc(F)c(C(F)(F)F)c(F)c3)C(=O)N2C1 [PP0914] | 40.2 nM | B (a compound having 3 or more and less than 10 is denoted as B) | B (a compound having 3 or more and less than 10 is denoted as B) | 
9 | CCO[C@@H]1C[C@H]2C(=O)NC3(CCC3)C(=O)N(C)[C@@H](C(CC)CC)C(=O)N(C)[C@H](C(=O)N3CCOCC3)CC(=O)N(C)[C@@H](CC3CC3)C(=O)N[C@@H]([C@@H](C)CC)C(=O)N(C)CC(=O)N(C)[C@H]3C/C=C\CCN(C3=O)[C@@H](Cc3ccc(F)cc3C)C(=O)N(C)CC(=O)N[C@@H](CCc3cc(F)c(C(F)(F)F)c(F)c3)C(=O)N2C1 [PP1526] | 118 nM |  |  | NRAS /KRAS [1, 8]: A (a compound having 10 or more and less than 20 is denoted as A); HRAS /KRAS [3, 9]: A (a compound having 10 or more and less than 20 is denoted as A)
10 | CCC[C@H]1C(=O)N[C@@H]([C@@H](C)CC)C(=O)N(C)CC(=O)N(C)[C@H]2C/C=C\CCN(C2=O)[C@@H](Cc2ccc(C(F)(F)F)cc2)C(=O)N(C)CC(=O)N[C@@H](CCc2ccc(CC)c(F)c2)C(=O)N2C[C@H](OCC)C[C@H]2C(=O)NC2(CC(C)(C)C2)C(=O)N(C)[C@@H](C2CCCC2)C(=O)N(C)[C@H](C(=O)N(C)C)CC(=O)N1C [PP2856] |  | A (a compound having 10 or more and less than 20 is denoted as A) | A (a compound having 10 or more and less than 20 is denoted as A) | IC50 ([2]; NCI-H441 cells, 4 days, CellTiter-Glo, read-out: NCl-H441 IC50): 33.5 nM
11 | CCO[C@@H]1C[C@H]2C(=O)NC3(CCC3)C(=O)N(C)[C@@H](C3CCCC3)C(=O)N(C)[C@H](C(=O)N(C)C)CC(=O)N(C)[C@@H](CC)C(=O)N[C@@H]([C@@H](C)CC)C(=O)N(C)CC(=O)N(C)[C@H]3CCCCN(C3=O)[C@@H](Cc3ccc(C(F)(F)F)cc3)C(=O)N(C)CC(=O)N[C@@H](CCc3c(F)c(F)c(C(F)(F)F)c(F)c3F)C(=O)N2C1 [PP0886] | 14.3 nM | C (A compound having a KD ratio of 0.1 or more and less than 3 is denoted as C) | B (a compound having 3 or more and less than 10 is denoted as B) | 
12 | CCO[C@@H]1C[C@H]2C(=O)NC3(CC(C)(C)C3)C(=O)N(C)[C@@H](C(CC)CC)C(=O)N(C)[C@H](C(=O)N(C)C)CC(=O)N(C)[C@@H](CC)C(=O)N[C@@H]([C@@H](C)CC)C(=O)N(C)CC(=O)N(C)[C@H]3C/C=C\CCN(C3=O)[C@@H](Cc3ccc(C)cc3)C(=O)N(C)CC(=O)N[C@@H](CCc3ccc(C(F)(F)F)c(Cl)c3)C(=O)N2C1 [PP2154] | 17.7 nM |  |  | NRAS /KRAS [1, 4]: A (a compound having 10 or more and less than 20 is denoted as A); HRAS /KRAS [3, 5]: A (a compound having 10 or more and less than 20 is denoted as A)
13 | CCO[C@@H]1C[C@H]2C(=O)NC3(CCC3)C(=O)N(C)[C@@H](C3CCCC3)C(=O)N(C)[C@H](C(=O)N3CCOCC3)CC(=O)N(C)[C@@H](CC(C)C)C(=O)N[C@@H]([C@@H](C)CC)C(=O)N(C)CC(=O)N(C)[C@H]3CCCCCN(C3=O)[C@@H](Cc3ccc(F)cc3OC)C(=O)N(C)CC(=O)N[C@@H](CCc3cc(F)c(C(F)(F)F)c(F)c3)C(=O)N2C1 [PP0924] | 92 nM | B (a compound having 3 or more and less than 10 is denoted as B) | B (a compound having 3 or more and less than 10 is denoted as B) | 
14 | CC[C@H](C)[C@@H]1NC(=O)[C@H](CC(C)C)N(C)C(=O)C[C@@H](C(=O)N2CCOCC2)N(C)C(=O)[C@H](C2CCCC2)N(C)C(=O)C2(CCCC2)NC(=O)[C@@H]2CCCN2C(=O)[C@H](CCc2ccc(C(F)(F)F)c(Cl)c2)NC(=O)CN(C)C(=O)[C@H](Cc2ccc(C(F)(F)F)cc2)N2CC=CC[C@@H](C2=O)N(C)C(=O)CN(C)C1=O [PP0462] | 15.1 nM |  |  | NRAS /KRAS [1, 4]: C (A compound having a KD ratio of 0.1 or more and less than 3 is denoted as C); HRAS /KRAS [3, 5]: C (A compound having a KD ratio of 0.1 or more and less than 3 is denoted as C)
15 | CCC[C@H]1C(=O)N[C@@H](C2CCCCC2)C(=O)N(C)CC(=O)N(C)[C@H]2C/C=C\CCN(C2=O)[C@@H](Cc2ccc(C(F)(F)F)cc2)C(=O)N(C)CC(=O)N[C@@H](CCc2ccc(C(F)(F)F)c(Cl)c2)C(=O)N2C[C@H](OCC)C[C@H]2C(=O)NC2(CC(C)(C)C2)C(=O)N(C)[C@@H](CC(C)(C)C)C(=O)N(C)[C@H](C(=O)N(C)C)CC(=O)N1C [PP3014] | 20.6 nM | AA (a compound having 20 or more is denoted as AA) | A (a compound having 10 or more and less than 20 is denoted as A) | 

Source: patent EP4603105A1, “PHARMACEUTICAL COMPOSITION CONTAINING CYCLIC COMPOUND HAVING SELECTIVE KRAS INHIBITORY EFFECT AGAINST HRAS AND NRAS” (CHUGAI SEIYAKU KABUSHIKI KAISHA, priority 2022, dated 2024)
